Measured values: EP1285918A1, “C7 Ester substituted taxanes as antitumor agents” (Florida State University Research Foundation, Inc., priority 2001, dated 2003)
Where two headings read alike, the source gives them in different places.

Experiments:
[1] = tested on: MX-1 Human Breast Carcinoma Xenograft; experiment: In vivo evaluation of oral administration of antitumor compounds against MX-1 human breast carcinoma xenograft (Example 25)
Excerpt: This study investigated the efficacy of various antitumor compounds when administered orally against the MX-1 human breast carcinoma xenograft.
(§1) The study was terminated on Day 63.

blood cell populations = experiment: Effect of oral treatment on blood cell populations, body weight and tumor weight in MX-1 bearing mice (Example 25, Table 23); format: in vivo, nu/nu mice; conditions: 107 mg/kg single oral bolus
Procedure: as §1
In addition to survival and tumor regression responses, the effect of treatment on blood cell populations was assessed. The major effect of these antitumor compounds on blood cell populations was a marked reduction in the neutrophil cell number. As well, monocyte depletion correlated fairly well with neutrophil reduction for each antitumor compound. […] There was a correlation between antitumor activity and reduced neutrophil count. In general, toxicity (as determined by neutrophil depletion) and weight loss correlated with efficacy. Importantly, the toxicities observed with the very efficacious antitumor compounds were manageable and reversible; neutrophil count and body weight rebounded from their low points in just a few days. Table 23 summarizes the weight reduction, neutrophil and monocyte measurements on Day 4, with tumor weight reduction calculated at Day 18: Table 23

[2] = tested on: SKMES Human Lung Carcinoma Xenograft
Procedure: The antitumor compound was prepared in the following vehicle: 10% ethanol and 90% Liposyn III.
Female Nu/Nu mice (6-8 weeks of age; implanted with 1 mm^3 SKMES lung carcinoma fragments in the flank) were sorted into treatment groups of six mice each. SKMES size ranges and group mean SKMES size ranges were 126-448 mg and 238-241 mg, respectively. […] Treatments were administered as a single i.v. bolus on Day 1, and the study was terminated on Day 60.
The mean days of survival is the number of days after which a SKMES neoplasm reached a size of 2.0 g and the animal was euthanized. A complete response is obtained if the tumor is not palpable at the end of the study. A partial response is obtained if the tumor shrinks to a size smaller than its size on Day 1 of the study.

[3] = 107 mg/kg single oral bolus, 6 mice/group, study end Day 63
[4] = 15 mg/kg single i.v. bolus Day 1, 6 mice/group, study end Day 60
[5] = 62 mg/kg single i.v. bolus Day 1, 6 mice/group, study end Day 60
[6] = 108 mg/kg single i.v. bolus Day 1, 6 mice/group, study end Day 60
[7] = 154 mg/kg single i.v. bolus Day 1, 6 mice/group, study end Day 60

## CCC(=O)O[C@H]1C[C@H]2OC[C@@]2(OC(C)=O)[C@H]2[C@H](OC(=O)c3ccccc3)[C@]3(O)C[C@H](OC(=O)[C@H](O)[C@H](C=C(C)C)NC(=O)OC(C)(C)C)C(C)=C([C@@H](O)C(=O)[C@]12C)C3(C)C [Compound 1351]
[1]; 107 mg/kg single oral bolus, 6 mice/group, on Day 5
  Maximum Weight Loss (Day): -9.1% (5)
[1]; [3]
  Partial Response: 0
  Stable Disease: 1
  Toxic Deaths: 0
[1]; 107 mg/kg single oral bolus, 6 mice/group, study end Day 63, days until tumor reached 1.5 g
  Mean Day of Survival (n): 46.2 ± 5.1 (5) days
[1]; MX-1, single oral bolus, doses of Table 22, Day 63
  survival compared to vehicle control mice: significant survival extensions
[1]; po, 107 mg/kg, 1512 h
  Complete Response: 0
Blood cell populations; Day 4
  Monocytes (K/µL): 0.088 K/µL
  Neutrophils (K/µL): 0.408 K/µL
Blood cell populations; reduction of monocytes, Day 4
  % Reduction: 8.3%
Blood cell populations; reduction of neutrophils, Day 4
  % Reduction: 55.2%
Blood cell populations; reduction of tumor weight at Day 18
  % Reduction: 85.9%
Blood cell populations; tumor weight at Day 18
  Weight: 122.1 mg

## CCC(=O)O[C@H]1C[C@H]2OC[C@@]2(OC(C)=O)[C@H]2[C@H](OC(=O)c3ccccc3)[C@]3(O)C[C@H](OC(=O)[C@H](O)[C@@H](NC(=O)OC(C)(C)C)c4cccs4)C(C)=C([C@@H](O)C(=O)[C@]12C)C3(C)C [Compound 1418]
[2]; [4]
  Survivors: 0
  Toxic Deaths: 0
[2]; [5]
  Survivors: 0
  Toxic Deaths: 0
[2]; 62 mg/kg single i.v. bolus Day 1, 6 mice/group, study end Day 60, days until tumor reached 2.0 g
  MDS (n): 35.3 ± 3.3 (6) days
[2]; [6]
  Survivors: 3
  Toxic Deaths: 0
[2]; [7]
  Survivors: 5
  Toxic Deaths: 0
[2]; SKMES, 1418 single i.v. bolus 62 mg/kg (Group 4), 2.0 g cut-off
  MDS: 35.3 days
[2]; iv, 15 mg/kg
  % Total Response: 0%
  Complete Responses: 0
  MDS (n): 21.2 ± 2.9 (6) days
  Partial Responses: 0
[2]; iv, 62 mg/kg
  % Total Response: 0%
  Complete Responses: 0
  Partial Responses: 0
[2]; iv, 108 mg/kg
  % Total Response: 50.0%
  Complete Responses: 1
  MDS (n): 40.6 ± 2.9 (3) days
  Partial Responses: 2
[2]; iv, 154 mg/kg
  % Total Response: 83.3%
  Complete Responses: 5
  Partial Responses: 0
